Read-outs that look alike come from different tables or passages of the source. One block for each molecule: values may come before it. Where a SMILES comes first, the peptide text is derived from it. Bridges are numbered along the chain shown (N, C = ends). Roman numbers before positions name the chains, in order. Where no end group is shown, it is not given here. Side-chain parts run from the residue outwards. [ ]: non-standard residue; d: D form. Ahx = NCCCCCC(=O)O
Experiments:
CD40-CD40L interaction = molecular target: T1, CD40-CD40L interaction (Homo sapiens, UniProt P25942); assay: Expression of CD95 induced by CD40L on BL41 cells cultured with 3T6-CD40L fibroblasts (flow cytometry); type: cell-based; conditions: for % of inhibition of the expression of CD95 induced by CD40L: BL41 + 3T6-CD40L, 48 hours
T1 construct: they receive a signal via the CD40 molecule, which they express in a constitutive manner; endogenous in cells; host or cells: BL41 Burkitt's lymphoma cells (endogenous CD40), co-cultured with 3T6 fibroblasts transfected with CD40L
Description: Then, the affinity of these ligands for the CD40 molecule is evaluated using a biosensor (BIAcore™). The agonist or antagonist effect of the ligands was tested using two simple biological tests. In the first, the expression of the membranous molecule CD95 by transformed B cells (Burkitt's lymphoma) is studied after activation by the CD40-CD40L interaction (Schattner et al., 1996). In such a model, the CD40L partner is expressed on transfected fibroblasts (3T6-CD40L) (Buelens et al., 1997). The BL41 Burkitt's lymphoma cells are incubated with non-transfected 3T6 fibroblasts (FIGS. 3A and 3C) or with 3T6 fibroblasts transfected by CD40L (FIGS. 3B and 3D). After 48 hours, the expression of CD95 is evaluated by flow cytometry. The expression of CD95 is induced in the presence of CD40L (FIG. 3B). A commercial anti-CD40L antibody inhibits the consequences of the CD40-CD40L interaction (FIG. 3D).
The antagonist effect is evaluated by measurement of the decrease in the expression of CD95 induced by the CD40L in the presence of the different chemical ligands (see Table I). With the help of these tests, the most interesting ligands are chosen to evaluate their activity in vivo and in vitro in more complex models.
The lymphoma B cells express the CD95 molecule when they receive a signal via the CD40 molecule, which they express in a constitutive manner. This signal is generally conveyed by the CD40L (CD154) molecule expressed by another cell. The antagonist ligands inhibit the binding of CD40 on CD40L and thus […] the expression of CD95. The agonist ligands copy the CD40L molecule and induce the expression of CD95 even in the absence of the cell expressing CD40L.
The BL41 Burkitt's lymphoma cells (5.10^5/ml) are cultured in the presence of 3T6 fibroblasts (10^5/ml) transfected (3T6-CD40L) or not transfected with CD40L (3T6), and treated with mitomycin to stop their proliferation. The ligands are added at the start of the culture at the chosen concentration. After culture for 48 hours, expression of the CD95 molecule is measured by flow cytometry. The BL41 cells are distinguished from the fibroblasts using an anti-CD19 antibody (specific marker of the B cells).

[1] = system: BL41 Burkitt's lymphoma cells; assay: Inhibition of proliferation of BL41 cells (incorporation of tritiated thymidine); type: cell-based; conditions: 24 hours culture, FIG. 4A, 50 μM to 50 nM
Description: Tritiated thymidine was added at a concentration of 1 μci/well (0.8.10^5 cells/well) for the last 8 hours of culture and the incorporation of tritiated thymidine measured using a gaseous scintillation β counter.
The second test is based on the property of certain B lymphomas to cease proliferation and enter apoptosis during the bridging of their membranous CD40 molecule (Tong et al., 1999). In this test, the BL41 cells are incubated with ligands CD40 and after 24 hours either the inhibition of proliferation of these cells is measured, by studying the incorporation of tritiated thymidine, or the percentage of apoptotic cells is measured with a flow cytometry study (FIGS. 4A and 4B).
Certain B lymphomas enter apoptosis when their CD40 molecule is bridged by an anti-CD40 antibody or by CD40L which is soluble independently from the CD95 molecule. This induction of apoptosis is expressed as a decrease in proliferation measured by the incorporation of tritiated thymidine. The agonist ligands of CD40 will induce an increase in apoptosis and as a result a decrease in the incorporation of tritiated thymidine.
The BL41 Burkitt's lymphoma cells (4.10^5/mL) are cultured in the presence of the different ligands at the chosen concentration. After 24 hours, the cells are either incubated for 8 hours with tritiated thymidine (1 μci/well) to measure the proliferation or are labelled with Annexin V-FITC and propidium iodide to evaluate the percentage of apoptotic cells with flow cytometry.

[2] = molecular target: T2, human CD40 muIg fusion protein (UniProt P01863+P25942); assay: Biacore3000 surface plasmon resonance study of the CD40/CD40L interaction and the ligands; type: binding
T2 construct: purchased ANCELL Corporation, Bayport, Minn
From the text: The Biacore3000 is a device which allows the interactions between two molecules to be studied, based on the surface plasmon resonance. It allows measurement in real time, and therefore allows the kinetics of interaction (association and disassociation) of an analyte (which is in an injected solution) and of a ligand (immobilised on a microchip supporting the measurement) to be monitored. The kinetic measurements at different concentrations of analyte allow calculation of the affinity constants of the interaction between the ligand and the analytes. The microchip contains four cells for different measurements, which allows direct comparison of a reference cell on which a protein which is not pertinent (protein which has no affinity with the ligand studied), but close to the ligand is immobilised with the cell on which the ligand is immobilised.
Rabbit antibodies directed against the constant region of mouse immunoglobulins were immobilized on a microchip. In the reference cell a monoclonal mouse antibody of isotype IgG2a (LG112) at 40 nM is immobilized with a flow of 5 μL/min for 2 minutes; in the cell of the ligand the recombinant CD40 associated with the constant region of the mouse IgG2a heavy chain (human CD40 muIg fusion protein, ANCELL Corporation, Bayport, Minn.) is immobilized under the same conditions.
On the two cells (reference and ligand), the CD40L (human CD154 muCD8 fusion protein, ANCELL Corporation) at different concentrations or the CD40L at a concentration of 1 μM or of 125 nM, are injected, as analyte, in the presence of different concentrations of ligands. The flow in the presence of the analytes is 10 μL/min for 5 minutes to study the association and, in the absence of analytes, the conditions are the same to study the dissociation.
In order to regenerate the cells (i.e. remove all the proteins adsorbed in a non-covalent manner), a solution of 10 mM of HCl is injected at 5 μL/min for 1 minute. The cells are then ready for another analysis.

[3] = molecular target: CD40 molecule expressed constitutively by BL41 Burkitt's lymphoma cells (UniProt P25942); assay: cell-based or functional assay
Sequence of CD40 molecule expressed constitutively by BL41 Burkitt's lymphoma cells (P25942 21-277 limits assumed): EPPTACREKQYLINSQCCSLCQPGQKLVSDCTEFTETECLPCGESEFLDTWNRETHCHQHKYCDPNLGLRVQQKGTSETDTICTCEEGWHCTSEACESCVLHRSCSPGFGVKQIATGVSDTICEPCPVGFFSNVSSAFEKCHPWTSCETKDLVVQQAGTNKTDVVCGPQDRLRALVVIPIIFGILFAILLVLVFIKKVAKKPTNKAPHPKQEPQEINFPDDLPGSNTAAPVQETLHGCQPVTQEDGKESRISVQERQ

T1 sequence (P25942 21-277): as the sequence (P25942 21-277 limits assumed) above
T2 sequence (P25942+P01863 fused): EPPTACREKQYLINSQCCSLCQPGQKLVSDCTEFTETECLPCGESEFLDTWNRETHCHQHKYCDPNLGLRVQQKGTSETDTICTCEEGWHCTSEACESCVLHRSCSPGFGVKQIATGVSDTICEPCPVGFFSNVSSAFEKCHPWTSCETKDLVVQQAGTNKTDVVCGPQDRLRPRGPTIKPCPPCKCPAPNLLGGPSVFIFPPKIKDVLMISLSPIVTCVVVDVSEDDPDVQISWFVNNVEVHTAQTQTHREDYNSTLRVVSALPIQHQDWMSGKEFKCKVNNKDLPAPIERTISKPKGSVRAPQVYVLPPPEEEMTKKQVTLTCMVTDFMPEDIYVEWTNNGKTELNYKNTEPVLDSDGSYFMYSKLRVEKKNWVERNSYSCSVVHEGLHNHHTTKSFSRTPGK

Molecule: CC(=O)NCCCC[C@H](NC(C)=O)C(=O)NCCCCC(NC(C)=O)C(=O)NCCCC[C@H](NC(C)=O)C(=O)NCCCC[C@H](NC(C)=O)C(=O)N[C@@H](C)C(=O)O (stereo partly shown) [L2]
effect on the expression of CD95 induced by CD40L (in words) (CD40-CD40L interaction; BL41 cells in the presence of 3T6-CD40L cells, no concentration stated): no effect
% of inhibition of the expression of CD95 induced by CD40L (CD40-CD40L interaction; ligand 25 μM): 0%
% of inhibition of the expression of CD95 induced by CD40L (CD40-CD40L interaction; ligand 50 μM): 0%
% of inhibition of the expression of CD95 induced by CD40L (CD40-CD40L interaction; ligand 100 μM): 0%

Molecule: L7-3: L7 analogue: replacement of the aminohexanoic acid spacer arm by a glycine (KGYYG; not fully specified (C-terminus); also: L7 analogue: aminohexanoic acid spacer replaced by glycine, core as L7)
inhibition of the proliferation of BL41 cells (in words) [1]: only have a small or no effect

Molecule: C[C@H](NC(=O)[C@H](CCCCNC(=O)[C@H](CCCCNC(=O)[C@H](CCCCNC(=O)[C@H](CCCCNC(=O)[C@H](CCCNC(=N)N)NC(=O)[C@@H]1CCCN1C[C@@H](N)CCCCN)NC(=O)[C@H](CCCNC(=N)N)NC(=O)[C@@H]1CCCN1C[C@@H](N)CCCCN)NC(=O)[C@H](CCCNC(=N)N)NC(=O)[C@@H]1CCCN1C[C@@H](N)CCCCN)NC(=O)[C@H](CCCNC(=N)N)NC(=O)[C@@H]1CCCN1C[C@@H](N)CCCCN)NC(=O)[C@H](CCCNC(=N)N)NC(=O)[C@@H]1CCCN1C[C@@H](N)CCCCN)C(=O)O [L1]
% of inhibition of the expression of CD95 induced by CD40L (CD40-CD40L interaction; ligand 25 μM): 0%
% of inhibition of the expression of CD95 induced by CD40L (CD40-CD40L interaction; ligand 50 μM): 43%
% of inhibition of the expression of CD95 induced by CD40L (CD40-CD40L interaction; ligand 100 μM): 60%
Kd ([2]; analyte CD40L at 1 μM and L1 at 50 μM, read-out: equilibrium constant): > 50000 nM

Molecule: L7-2: L7 analogue with the reverse sequence H-Tyr-Tyr-Gly-Lys- (YYGK)
inhibition of the proliferation of BL41 cells (in words) [1]: only have a small or no effect

IC50 ([2]; in the presence of 100 nM of CD40L, read-out: inhibition of 50% of the binding of CD40L (IC50)): < 50 nM
equilibrium constant compared with L4 ([2]; inferred from IC50, same conditions as L4): less than that of L4
Molecule: NCCCC[C@H](N)C(=O)NCC(=O)N[C@@H](Cc1ccc(O)cc1)C(=O)N[C@@H](Cc1ccc(O)cc1)C(=O)NCCCCCC(=O)NCCCC[C@H]1CC(=O)N[C@@H](CCCCNC(=O)CCCCCNC(=O)[C@H](Cc2ccc(O)cc2)NC(=O)[C@H](Cc2ccc(O)cc2)NC(=O)CNC(=O)[C@@H](N)CCCCN)CC(=O)N[C@@H](CCCCNC(=O)CCCCCNC(=O)[C@H](Cc2ccc(O)cc2)NC(=O)[C@H](Cc2ccc(O)cc2)NC(=O)CNC(=O)[C@@H](N)CCCCN)CC(=O)N1 [L9]

Molecule: C[C@H](NC(=O)[C@H](CCCCNC(=O)[C@H](CCCCNC(=O)[C@H](CCCCNC(=O)[C@H](CCCCNC(=O)[C@H](Cc1ccc(O)cc1)NC(=O)[C@H](Cc1ccc(O)cc1)NC(=O)CNC(=O)[C@@H](N)CCCCN)NC(=O)[C@H](Cc1ccc(O)cc1)NC(=O)[C@H](Cc1ccc(O)cc1)NC(=O)CNC(=O)[C@@H](N)CCCCN)NC(=O)[C@H](Cc1ccc(O)cc1)NC(=O)[C@H](Cc1ccc(O)cc1)NC(=O)CNC(=O)[C@@H](N)CCCCN)NC(=O)[C@H](Cc1ccc(O)cc1)NC(=O)[C@H](Cc1ccc(O)cc1)NC(=O)CNC(=O)[C@@H](N)CCCCN)NC(=O)[C@H](Cc1ccc(O)cc1)NC(=O)[C@H](Cc1ccc(O)cc1)NC(=O)CNC(=O)[C@@H](N)CCCCN)C(=O)O [L3] (I: H-KGYYKA-OH / II: H-KGYYK([Tyr-Tyr-Gly-Lys]) / III: H-KGYYK / IV: H-KGYYK; amide I:5-IV:C, II:C-III:5, III:C-IV:5)
% of inhibition of the expression of CD95 induced by CD40L (CD40-CD40L interaction; ligand 5 μM): 0%
% of inhibition of the expression of CD95 induced by CD40L (CD40-CD40L interaction; ligand 10 μM): 13%
% of inhibition of the expression of CD95 induced by CD40L (CD40-CD40L interaction; ligand 25 μM): 25%
% of inhibition of the expression of CD95 induced by CD40L (CD40-CD40L interaction; ligand 50 μM): 62%
% of inhibition of the expression of CD95 induced by CD40L (CD40-CD40L interaction; ligand 100 μM): 60%

Molecule: L12: from linear 8-B core coupled with pentapeptide 1-A; linear version of L9 (chain Lys-Lys-Lys; peptide KGYY; not fully specified (some residues, C-terminus); also: peptide (pentapeptide 1-A) coupled to linear core 8-B, linkage and core structure not given here)
binding to CD40 and displacement of CD40L (in words) ([2]; in the presence of 100 nM of CD40L): Only the L4 and L9 molecules bind to CD40

% of inhibition of the expression of CD95 induced by CD40L, ligand at 25 µM [3]: 0%
% of inhibition of the expression of CD95 induced by CD40L, ligand at 50 µM [3]: 0%
% of inhibition of the expression of CD95 induced by CD40L, ligand at 100 µM [3]: 0%
B1: Compound L2 (ligand L2), core structure of the ligands L1 and L3 (peptide)
chain: KKKKA
modifications: also: four Lys joined through epsilon-amines (isopeptide bonds), free amine groups acetylated

Kd ([2]; 4 concentrations of CD40L from 62.5 to 500 nM, read-out: equilibrium constant of CD40L for CD40): 54 nM
B2: CD40L: human CD154 muCD8 fusion protein, ANCELL Corporation (protein)
chain: KPQAPELRIFPKKMDAELGQKVDLVCEVLGSVSQGCSWLFQNSSSKLPQPTFVVYMASSHNKITWDEKLNSSKLFSAMRDTNNKYVLTLNKFSKENEGYYFCSVISNSVMYFSSVVPVLQKVNSTTTKPVLRTPSPVHPTGTSQPQRPEDCRPRGSVKGTGLDFACDIYHRRLDKIEDERNLHEDFVFMKTIQRCNTGERSLSLLNCEEIKSQFEGFVKDIMLNKEETKKENSFEMQKGDQNPQIAAHVISEASSKTTSVLQWAEKGYYTMSNNLVTLENGKQLTVKRQGLYYIYAQVTFCSNREASSQAPFIASLCLKSPGRFERILLRAANTHSSAKPCGQQSIHLGGVFELQPGASVFVNVTDPSQVSHGTGFTSFGLLKL

% of inhibition of the expression of CD95 induced by CD40L, ligand at 0.5 µM [3]: 0%
% of inhibition of the expression of CD95 induced by CD40L, ligand at 5 µM [3]: 8%
% of inhibition of the expression of CD95 induced by CD40L, ligand at 50 µM [3]: 13%
B3: Compound L4a (ligand L4a): same core molecule as L4 with only 2 examples of the peptide sequence (peptide)
chain: [dA]K[dA]K[dA]K
peptide: H-KGYY[Ahx]
modifications: also: two copies of chain 2 linked via Ahx to epsilon-amines of two core Lys, which Lys not given here, further groups not given here, head-to-tail to a chain's N/C-terminus

Source: US7741280B2, “Multimeric molecules, the preparation method thereof and use of same for the preparation of medicaments” (Centre National de la Recherche Scientifique, priority 2002, dated 2010)
